Experimental data from ChEMBL document CHEMBL5038613, “Synthesis, functional proteomics and biological evaluation of new 5-pyrazolyl ureas as potential anti-angiogenic compounds” (Eur J Med Chem, 2021).
Calls of active or inactive are those of the source. The rule behind the calls is not given here.

Assays:
NCI-H522 = test: Antiproliferative activity against human NCI-H522 cells assessed as inhibition of cell growth at 10 uM; format: functional; design: scale not given: the % may be the effect or the level left
HL-60(TB) = test: Antiproliferative activity against human HL-60(TB) cells assessed as inhibition of cell growth at 10 uM; format: functional; design: scale not given: the % may be the effect or the level left
HUVEC [1] = test: Antiproliferative activity against HUVEC assessed as inhibition of cell growth at 100 uM measured after 24 hrs by EdU incorporation based fluorescence microscopic analysis; format: toxicity; conditions: human
HUVEC [2] = test: (§1) Antiproliferative activity against HUVEC assessed as inhibition of cell growth at 20 uM measured after 24 hrs by EdU incorporation based fluorescence microscopic analysis; format: toxicity; conditions: human, huvec, 24 h, 20 µM
HUVEC [3] = test: Anti-angiogenic activity against HUVEC cells assessed as decrease in ERK phosphorylation level at 20 uM preincubated for 10 mins followed by VEGF addition and measured after 20 mins by western blot analysis; format: functional, cell-based; conditions: Homo sapiens, time 30.0 min
HUVEC [4] = test: (§2) Antiproliferative activity against HUVEC assessed as inhibition of cell growth at 10 uM measured after 24 hrs by EdU incorporation based fluorescence microscopic analysis; format: toxicity; conditions: human, huvec, 24 h, 10 µM
HUVEC [5] = test: Anti-angiogenic activity against HUVEC cells assessed as decrease in ERK phosphorylation level at 20 uM preincubated for 10 mins followed by VEGF addition and measured after 20 mins in presence of Na3VO4 by western blot analysis; format: functional, cell-based; conditions: Homo sapiens, time 30.0 min
M14 = test: Antiproliferative activity against human M14 cells assessed as inhibition of cell growth at 10 uM; format: functional; design: scale not given: the % may be the effect or the level left
[6] = as §1; format: toxicity; conditions: human, HUVEC cells, read-out: Activity
HUVEC [7] = test: Effect on MAPK1 expression level in HUVEC cells at 100 uM by western blot analysis; format: functional, cell-based; conditions: Homo sapiens
RPMI-8226 = test: Antiproliferative activity against human RPMI-8226 cells assessed as inhibition of cell growth at 10 uM; format: functional; design: scale not given: the % may be the effect or the level left
HUVEC [8] = test: Effect on PP1gamma expression level in HUVEC cells at 1 uM by western blot analysis; format: functional, cell-based; conditions: Homo sapiens
CCRF-CEM = test: Antiproliferative activity against human CCRF-CEM cells assessed as inhibition of cell growth at 10 uM; format: functional; design: scale not given: the % may be the effect or the level left
[9] = as §2; format: toxicity; conditions: human, HUVEC cells, read-out: Activity
K562 = test: Antiproliferative activity against human K-562 cells assessed as inhibition of cell growth at 10 uM; format: functional; design: scale not given: the % may be the effect or the level left
HUVEC [10] = test: Anti-angiogenic activity against HUVEC cells assessed as effect on SRC phosphorylation at 20 uM preincubated for 10 mins followed by VEGF addition and measured after 20 mins by western blot analysis; format: functional, cell-based; conditions: Homo sapiens, time 30.0 min
SK-MEL-5 = test: Antiproliferative activity against human SK-MEL-5 cells assessed as inhibition of cell growth at 10 uM; format: functional; design: scale not given: the % may be the effect or the level left
HCT-116 = test: Antiproliferative activity against human HCT-116 cells assessed as inhibition of cell growth at 10 uM; format: functional; design: scale not given: the % may be the effect or the level left
SK-MEL-2 = test: Antiproliferative activity against human SK-MEL-2 cells assessed as inhibition of cell growth at 10 uM; format: functional; design: scale not given: the % may be the effect or the level left

For `CCCC(O)Cn1ncc(C(=O)OCC)c1NC(=O)NCc1ccccc1F` (configuration not stated), which Activity (NCI-H522) is on record?
Its Activity is 44%.

With `CCOC(=O)c1cnn(CC(C)O)c1NC(=O)NCc1ccccc1C(F)(F)F` (configuration not stated) as the compound, how does the Activity (HL-60(TB)) read?
Its Activity is 42%.

What does the source list for `CCCC(O)Cn1ncc(C(=O)OCC)c1NC(=O)NCc1cccc(F)c1` (configuration not stated)?
Activity (HUVEC [1]): Toxic; Activity (HUVEC [2]): Non-Toxic; Activity (HL-60(TB)): 41%; Activity (HUVEC [3]): inactive; Activity (NCI-H522): 42%; Activity (HUVEC [4]): Non-Toxic

What does the source list for `CCCC(O)Cn1ncc(C(=O)OCC)c1NC(=O)NCc1cccc(C(F)(F)F)c1` (configuration not stated)?
Activity (HUVEC [5]): inactive; Activity (M14): 42%; Activity (HUVEC [1]): Toxic; inhibition at 24 h, 20 µM [6]: 30%; Activity (HUVEC [7]): Active; Activity (RPMI-8226): 53%; Activity (HUVEC [3]): Active; Activity (HUVEC [8]): Active; Activity (CCRF-CEM): 100%; Activity (NCI-H522): 54%; inhibition at 24 h, 10 µM [9]: 20%; Activity (K562): 53%; Activity (HUVEC [10]): inactive

With `CCCC(O)Cn1ncc(C(=O)OCC)c1NC(=O)NCc1ccc(C(F)(F)F)cc1` (configuration not stated) as the compound, how does the Activity (SK-MEL-5) read?
The Activity was 59%.

What about the Activity (HCT-116) of the same compound?
Its Activity is 59%.

And the Activity (HL-60(TB))?
The Activity was 60%.

And the Activity (RPMI-8226)?
Its Activity is 74%.

And the Activity (CCRF-CEM)?
Its Activity is 60%.

What about the Activity (NCI-H522) of the same compound?
The Activity was 50%.

What about the Activity (K562) of the same compound?
The Activity was 65%.

And the Activity (SK-MEL-2)?
Its Activity is 49%.

Which Activity (HL-60(TB)) does the source give for `CCOC(=O)c1cnn(CC(C)O)c1NC(=O)NCc1ccc(F)cc1` (configuration not stated) here?
Its Activity is 53%.

For `CCOC(=O)c1cnn(CC(O)CC)c1NC(=O)NCc1cccc(F)c1` (configuration not stated), which Activity (NCI-H522) is on record?
The Activity was 40%.

For `CCCC(O)Cn1ncc(C(=O)OCC)c1NC(=O)NCc1ccc(F)cc1` (configuration not stated), which Activity (NCI-H522) is on record?
Its Activity is 53%.

Which Activity (CCRF-CEM) does the source give for `CCOC(=O)c1cnn(CC(C)O)c1NC(=O)NCc1cccc(F)c1` (configuration not stated) here?
The Activity was 100%.

With `CCOC(=O)c1cnn(CC(C)O)c1NC(=O)NCc1ccccc1F` (configuration not stated) as the compound, how does the Activity (HL-60(TB)) read?
The Activity was 44%.

Which Activity (HUVEC [5]) does the source give for `CCCC(O)Cn1ncc(C(=O)OCC)c1NC(=O)Nc1cccc(C(F)(F)F)c1` (configuration not stated) here?
Its Activity is “inactive”.

What about the Activity (HUVEC [1]) of the same compound?
The Activity was “Toxic”.

And the Activity (HUVEC [2])?
The Activity was “Non-Toxic”.

And the Activity (HUVEC [3])?
The Activity was “inactive”.

And the Activity (HUVEC [4])?
Its Activity is “Non-Toxic”.

What about the Activity (HUVEC [10]) of the same compound?
Its Activity is “inactive”.

With `CCOC(=O)c1cnn(CC(O)CC)c1NC(=O)NCc1ccc(C(F)(F)F)cc1` (configuration not stated) as the compound, how does the Activity (NCI-H522) read?
The Activity was 40%.

Which Activity (NCI-H522) does the source give for `CCCC(O)Cn1ncc(C(=O)OCC)c1NC(=O)NCc1ccccc1C(F)(F)F` (configuration not stated) here?
The Activity was 59%.
